# Assay results taken from the NIST ThermoML archive (doi:10.1016/j.jct.2018.09.011).
# Where “and” joins values, the source holds several entries; their conditions need not be identical. Equal values may be shown once. Numbers after ± are expanded uncertainties.
# How the values were obtained:
# [1] = for Normal melting temperature: DTA
# [2] = Molar enthalpy of transition or fusion; settings: Crystal; DSC
smiles,measurement,setting,value
Nc1cccc(O)c1 [3-hydroxybenzenamine],vapor or sublimation pressure,"[1]; 321.35 K, Crystal, Calculated from knudsen effusion weight loss",0.000101 ± 2e-05 kPa and 0.000102 ± 2e-05 kPa
same,vapor or sublimation pressure,"[1]; 323.2 K, Crystal, Calculated from knudsen effusion weight loss",0.000127 ± 2.1e-05 kPa and 0.000126 ± 2.1e-05 kPa
same,vapor or sublimation pressure,"[1]; 325.17 K, Crystal, Calculated from knudsen effusion weight loss",0.000163 ± 2.1e-05 kPa and 0.000161 ± 2.1e-05 kPa and 0.000162 ± 2.1e-05 kPa
same,vapor or sublimation pressure,"[1]; 327.4 K, Crystal, Calculated from knudsen effusion weight loss",0.000209 ± 2.1e-05 kPa and 0.000211 ± 2.1e-05 kPa and 0.00021 ± 2.1e-05 kPa
same,vapor or sublimation pressure,"[1]; 329.2 K, Crystal, Calculated from knudsen effusion weight loss",0.00026 ± 2.2e-05 kPa and 0.000259 ± 2.2e-05 kPa
same,vapor or sublimation pressure,"[1]; 331.17 K, Crystal, Calculated from knudsen effusion weight loss",0.000327 ± 2.3e-05 kPa and 0.00033 ± 2.3e-05 kPa and 0.000328 ± 2.3e-05 kPa
same,vapor or sublimation pressure,"[1]; 333.37 K, Crystal, Calculated from knudsen effusion weight loss",0.000422 ± 2.5e-05 kPa and 0.00042 ± 2.5e-05 kPa
same,vapor or sublimation pressure,"[1]; 335.2 K, Crystal, Calculated from knudsen effusion weight loss",0.000513 ± 2.7e-05 kPa and 0.0005 ± 2.7e-05 kPa and 0.00051 ± 2.7e-05 kPa
same,vapor or sublimation pressure,"[1]; 337.16 K, Crystal, Calculated from knudsen effusion weight loss",0.00063 ± 3e-05 kPa and 0.000633 ± 3e-05 kPa
same,vapor or sublimation pressure,"[1]; 339.36 K, Crystal, Calculated from knudsen effusion weight loss",0.000816 ± 3.5e-05 kPa and 0.000808 ± 3.5e-05 kPa and 0.000818 ± 3.5e-05 kPa
same,vapor or sublimation pressure,"[1]; 341.19 K, Crystal, Calculated from knudsen effusion weight loss",0.00099 ± 4e-05 kPa and 0.000998 ± 4.1e-05 kPa and 0.001 ± 4.1e-05 kPa
same,vapor or sublimation pressure,"[1]; 343.33 K, Crystal, Calculated from knudsen effusion weight loss",0.001245 ± 0.0001 kPa and 0.001241 ± 0.0001 kPa and 0.001238 ± 0.0001 kPa
same,vapor or sublimation pressure,"[1]; 354.45 K, Crystal",0.00426 ± 0.00023 kPa
same,vapor or sublimation pressure,"[1]; 356.39 K, Crystal",0.00515 ± 0.00023 kPa
same,vapor or sublimation pressure,"[1]; 358.34 K, Crystal",0.00622 ± 0.00025 kPa
same,vapor or sublimation pressure,"[1]; 360.33 K, Crystal",0.00754 ± 0.00026 kPa
same,vapor or sublimation pressure,"[1]; 362.32 K, Crystal",0.00913 ± 0.00026 kPa
same,vapor or sublimation pressure,"[1]; 364.28 K, Crystal",0.01083 ± 0.00028 kPa
same,vapor or sublimation pressure,"[1]; 366.24 K, Crystal",0.01321 ± 0.00029 kPa
same,vapor or sublimation pressure,"[1]; 368.21 K, Crystal",0.01572 ± 0.00032 kPa
same,vapor or sublimation pressure,"[1]; 369.99 K, Metastable liquid",0.02985 ± 0.00042 kPa
same,vapor or sublimation pressure,"[1]; 370.19 K, Crystal",0.01886 ± 0.00035 kPa
same,vapor or sublimation pressure,"[1]; 371.93 K, Metastable liquid",0.03445 ± 0.00047 kPa
same,vapor or sublimation pressure,"[1]; 372.14 K, Crystal",0.02314 ± 0.00038 kPa
same,vapor or sublimation pressure,"[1]; 373.94 K, Metastable liquid",0.03983 ± 0.00051 kPa
same,vapor or sublimation pressure,"[1]; 374.12 K, Crystal",0.02745 ± 0.00041 kPa
same,vapor or sublimation pressure,"[1]; 375.91 K, Metastable liquid",0.04535 ± 0.00055 kPa
same,vapor or sublimation pressure,"[1]; 376.1 K, Crystal",0.03277 ± 0.00045 kPa
same,vapor or sublimation pressure,"[1]; 377.86 K, Metastable liquid",0.05245 ± 0.00062 kPa
same,vapor or sublimation pressure,"[1]; 378.06 K, Crystal",0.0385 ± 0.00051 kPa
same,vapor or sublimation pressure,"[1]; 379.83 K, Metastable liquid",0.06035 ± 0.00069 kPa
same,vapor or sublimation pressure,"[1]; 380.03 K, Crystal",0.04532 ± 0.00056 kPa
same,vapor or sublimation pressure,"[1]; 381.81 K, Metastable liquid",0.06885 ± 0.00076 kPa
same,vapor or sublimation pressure,"[1]; 382.13 K, Crystal",0.05475 ± 0.00065 kPa
same,vapor or sublimation pressure,"[1]; 383.79 K, Metastable liquid",0.07865 ± 0.00085 kPa
same,vapor or sublimation pressure,"[1]; 383.96 K, Crystal",0.06316 ± 0.00072 kPa
same,vapor or sublimation pressure,"[1]; 385.75 K, Metastable liquid",0.08925 ± 0.00093 kPa
same,vapor or sublimation pressure,"[1]; 385.9 K, Crystal",0.07525 ± 0.00082 kPa
same,vapor or sublimation pressure,"[1]; 387.75 K, Metastable liquid",0.1024 ± 0.0011 kPa
same,vapor or sublimation pressure,"[1]; 387.9 K, Crystal",0.08917 ± 0.00094 kPa
same,vapor or sublimation pressure,"[1]; 389.74 K, Metastable liquid",0.1162 ± 0.0012 kPa
same,vapor or sublimation pressure,"[1]; 389.85 K, Crystal",0.1058 ± 0.0011 kPa
same,vapor or sublimation pressure,"[1]; 391.73 K, Metastable liquid",0.131 ± 0.0013 kPa
same,vapor or sublimation pressure,"[1]; 391.83 K, Crystal",0.1242 ± 0.0012 kPa
same,vapor or sublimation pressure,"[1]; 393.68 K, Metastable liquid",0.1478 ± 0.0015 kPa
same,vapor or sublimation pressure,"[1]; 395.67 K, Metastable liquid",0.1684 ± 0.0016 kPa
same,vapor or sublimation pressure,"[1]; 397.62 K, Liquid",0.1915 ± 0.0019 kPa
same,vapor or sublimation pressure,"[1]; 399.72 K, Liquid",0.2191 ± 0.002 kPa
same,vapor or sublimation pressure,"[1]; 401.54 K, Liquid",0.2426 ± 0.0023 kPa
same,vapor or sublimation pressure,"[1]; 403.63 K, Liquid",0.2731 ± 0.0026 kPa
same,vapor or sublimation pressure,"[1]; 405.59 K, Liquid",0.3119 ± 0.0029 kPa
same,vapor or sublimation pressure,"[1]; 407.46 K, Liquid",0.3461 ± 0.0032 kPa
same,vapor or sublimation pressure,"[1]; 409.54 K, Liquid",0.3932 ± 0.0036 kPa
same,vapor or sublimation pressure,"[1]; 411.5 K, Liquid",0.4342 ± 0.004 kPa
same,vapor or sublimation pressure,"[1]; 413.47 K, Liquid",0.4825 ± 0.0044 kPa
same,vapor or sublimation pressure,"[1]; 415.43 K, Liquid",0.5451 ± 0.005 kPa
same,vapor or sublimation pressure,"[1]; 417.4 K, Liquid",0.6031 ± 0.0054 kPa
same,vapor or sublimation pressure,"[1]; 419.39 K, Liquid",0.6721 ± 0.006 kPa
same,vapor or sublimation pressure,"[1]; 421.33 K, Liquid",0.7506 ± 0.0067 kPa
same,vapor or sublimation pressure,"[1]; 423.31 K, Liquid",0.8416 ± 0.0075 kPa
same,Normal melting temperature,[1]; Crystal,121.48 ± 0.63 °C
same,Molar enthalpy of transition or fusion,[2],5.6 ± 0.155 kcal/mol
Nc1ccccc1O [2-hydroxybenzenamine],vapor or sublimation pressure,"[1]; 321.12 K, Crystal, Calculated from knudsen effusion weight loss",0.000107 ± 2e-05 kPa and 0.000105 ± 2e-05 kPa and 0.000106 ± 2e-05 kPa
same,vapor or sublimation pressure,"[1]; 323.43 K, Crystal, Calculated from knudsen effusion weight loss",0.000141 ± 2.1e-05 kPa and 0.000138 ± 2.1e-05 kPa and 0.000139 ± 2.1e-05 kPa
same,vapor or sublimation pressure,"[1]; 325.14 K, Crystal, Calculated from knudsen effusion weight loss",0.00017 ± 2.1e-05 kPa and 0.000172 ± 2.1e-05 kPa
same,vapor or sublimation pressure,"[1]; 327.13 K, Crystal, Calculated from knudsen effusion weight loss",0.000212 ± 2.1e-05 kPa and 0.000214 ± 2.1e-05 kPa
same,vapor or sublimation pressure,"[1]; 329.3 K, Crystal, Calculated from knudsen effusion weight loss",0.000271 ± 2.2e-05 kPa and 0.000277 ± 2.2e-05 kPa and 0.000275 ± 2.2e-05 kPa
same,vapor or sublimation pressure,"[1]; 331.21 K, Crystal, Calculated from knudsen effusion weight loss",0.000343 ± 2.3e-05 kPa and 0.000335 ± 2.3e-05 kPa and 0.00034 ± 2.3e-05 kPa
same,vapor or sublimation pressure,"[1]; 333.13 K, Crystal, Calculated from knudsen effusion weight loss",0.000423 ± 2.5e-05 kPa and 0.000419 ± 2.5e-05 kPa
same,vapor or sublimation pressure,"[1]; 335.33 K, Crystal, Calculated from knudsen effusion weight loss",0.000534 ± 2.8e-05 kPa and 0.000541 ± 2.8e-05 kPa and 0.000538 ± 2.8e-05 kPa
same,vapor or sublimation pressure,"[1]; 337.2 K, Crystal, Calculated from knudsen effusion weight loss",0.000661 ± 3.1e-05 kPa and 0.000654 ± 3.1e-05 kPa and 0.000657 ± 3.1e-05 kPa
same,vapor or sublimation pressure,"[1]; 339.14 K, Crystal, Calculated from knudsen effusion weight loss",0.000824 ± 3.5e-05 kPa and 0.000835 ± 3.6e-05 kPa and 0.000826 ± 3.5e-05 kPa
same,vapor or sublimation pressure,"[1]; 341.33 K, Crystal, Calculated from knudsen effusion weight loss",0.001036 ± 8.1e-05 kPa and 0.001041 ± 8.1e-05 kPa and 0.001043 ± 8.2e-05 kPa
same,vapor or sublimation pressure,"[1]; 343.26 K, Crystal, Calculated from knudsen effusion weight loss",0.00129 ± 0.00011 kPa and 0.001263 ± 0.0001 kPa
same,Normal melting temperature,[1]; Crystal,174.38 ± 0.68 °C
same,Molar enthalpy of transition or fusion,[2],7.79 ± 0.194 kcal/mol
Nc1ccc(O)cc1 [4-hydroxybenzenamine],vapor or sublimation pressure,"[1]; 337.15 K, Crystal, Calculated from knudsen effusion weight loss",0.000113 ± 2e-05 kPa and 0.000111 ± 2e-05 kPa
same,vapor or sublimation pressure,"[1]; 339.54 K, Crystal, Calculated from knudsen effusion weight loss",0.000144 ± 2.1e-05 kPa and 0.000147 ± 2.1e-05 kPa and 0.000145 ± 2.1e-05 kPa
same,vapor or sublimation pressure,"[1]; 341.2 K, Crystal, Calculated from knudsen effusion weight loss",0.000179 ± 2.1e-05 kPa and 0.000175 ± 2.1e-05 kPa and 0.000177 ± 2.1e-05 kPa
same,vapor or sublimation pressure,"[1]; 343.15 K, Crystal, Calculated from knudsen effusion weight loss",0.000223 ± 2.2e-05 kPa and 0.000221 ± 2.1e-05 kPa and 0.000219 ± 2.1e-05 kPa
same,vapor or sublimation pressure,"[1]; 345.47 K, Crystal, Calculated from knudsen effusion weight loss",0.000284 ± 2.2e-05 kPa and 0.00028 ± 2.2e-05 kPa and 0.000287 ± 2.2e-05 kPa
same,vapor or sublimation pressure,"[1]; 347.19 K, Crystal, Calculated from knudsen effusion weight loss",0.000348 ± 2.4e-05 kPa and 0.000342 ± 2.3e-05 kPa and 0.000344 ± 2.3e-05 kPa
same,vapor or sublimation pressure,"[1]; 349.15 K, Crystal, Calculated from knudsen effusion weight loss",0.000425 ± 2.5e-05 kPa and 0.000418 ± 2.5e-05 kPa and 0.000431 ± 2.5e-05 kPa
same,vapor or sublimation pressure,"[1]; 351.21 K, Crystal, Calculated from knudsen effusion weight loss",0.000527 ± 2.7e-05 kPa and 0.000533 ± 2.8e-05 kPa and 0.00053 ± 2.7e-05 kPa
same,vapor or sublimation pressure,"[1]; 353.2 K, Crystal, Calculated from knudsen effusion weight loss",0.000653 ± 3.1e-05 kPa and 0.000634 ± 3e-05 kPa and 0.000645 ± 3e-05 kPa
same,vapor or sublimation pressure,"[1]; 355.14 K, Crystal, Calculated from knudsen effusion weight loss",0.000787 ± 3.4e-05 kPa and 0.000786 ± 3.4e-05 kPa and 0.000796 ± 3.5e-05 kPa
same,vapor or sublimation pressure,"[1]; 357.46 K, Crystal, Calculated from knudsen effusion weight loss",0.001018 ± 7.9e-05 kPa and 0.001002 ± 7.8e-05 kPa and 0.001003 ± 7.8e-05 kPa
same,vapor or sublimation pressure,"[1]; 359.19 K, Crystal, Calculated from knudsen effusion weight loss",0.001205 ± 9.7e-05 kPa and 0.001211 ± 9.8e-05 kPa and 0.001198 ± 9.6e-05 kPa
same,Normal melting temperature,[1]; Crystal,186.89 ± 0.68 °C
same,Molar enthalpy of transition or fusion,[2],7.51 ± 0.198 kcal/mol
